From patent publication US5216014A, “Furo-coumarinsulfonamides as protein kinase C inhibitors” (Sphinx Pharmaceuticals Corporation, priority 1991, dated 1993)

How the values were obtained:
[1] = Solubility remark in tumor cell growth test; type: physicochemical; set-up: key: *: indicates that the compound was too insoluble to test; settings: footnote mark in Table 6
[2] = test system: human keratinocytes (NHEK cells); assay: Human Keratinocyte Inhibition (3H-thymidine incorporation); type: cell-based
Procedure: Proliferating keratinocytes (NHEK cells purchased from Clonetics, Inc., San Diego, Calif.) in second passage were grown in Keratinocyte Growth Medium (KGM) (Clonetics, Inc.) Cells are trypsinized (0.025% trypsin, Clonetics), counted with a hemacytometer (Scientific Products), and seeded at a concentration of 2,500 cells/well in a 96 well microtiter plate. After allowing cells to attach to the surface overnight, the culture medium is aspirated and replaced with […] of fresh KGM. Test agents are evaluated and IC50,s are ^3 H-thymidine determined according to the ^3 H-thymidine incorporation procedures described as in Example 8. IC50 is the concentration of test compound required to inhibit fifty percent of the incorporation of H-thymidine into proliferating cells not exposed to test agent.

[3] = molecular target: cAMP dependent protein kinase (PKA); assay: cAMP Dependent Protein Kinase (PKA) Assay; type: biochemical; settings: 10 min; catalytic subunit of PKA
Procedure: Compounds found to be inhibitors of protein kinase C activity are tested for inhibitory activity against protein kinase (PKA). This enzyme, like protein kinase C, plays an important role in cell-cell communication and is activated by a second messenger, cAMP. Secondary screening against PKA is useful for ascertaining the selectivity of the compounds of the invention. A cAMP dependent protein kinase assay utilizes a catalytic subunit of PKA (Sigma Chemical Company, St. Louis, Missouri) that is mixed with buffer before addition of the inhibitor in dimethylsulfoxide (DMSO). The assay is started by the addition of ^32 P-ATP and the reaction is allowed to proceed for 10 min before stopping with 25% trichloroacetic acid (TCA) and 1.0 mg/ml bovine serum albumin (BSA). The phosphorylated protein is isolated by filtration and the radioactivity is counted in a beta scintillation counter.
PKA assay results are shown in Table 5 in the column labeled PKA. […] The tested compounds of the invention are selective for protein kinase C, and have no effect on cAMP dependent protein kinase. This is seen by a comparison of Tables 3 and 5. […] Thus, the compounds of the invention should have minimal or no effect on the metabolic pathways associated with stimulation of protein kinase by cAMP.

protein kinase C = assay: Protein Kinase C Inhibition (PKC assay, histone H1 phosphorylation); type: biochemical; settings: 10 minutes; histone H1 substrate; rat brain enzyme
Procedure: The protein kinase C (PKC) assay is designed to duplicate the in vivo conditions required for protein kinase C function. Therefore, pH, salt and cofactor concentrations are similar to physiologic levels. A lysine rich histone H1 is used in the assay as the phosphorylation acceptor protein because it is readily available and serves as a good substrate for protein kinase C. Enzyme is prepared from rat brain and is purified to apparent homogeneity as determined by a single band on silver stained sodium dodeceyl sulfate (SDS)-polyacrylamide.
In the screening assay, phosphatidylserine (PS) and diacylglycerol (DAG) are co-sonicated to form unilamellar and multilamellar vesicles. The concentrations of lipids in the assay are suboptimal to maximize the detection potential for inhibitors. Potential inhibitor compounds are added to the assay in dimethylsulfoxide (DMSO) at three concentrations to give final inhibitor concentrations of 4.3, 43 and 218 μm, respectively. The assay is started with the addition of enzyme and stopped after 10 minutes by the addition of a 25% trichloroacetic acid (TCA) solution and 1.0 mg/ml bovine serum albumin (BSA). The radioactive histone product is retained and washed on glass fiber filters that allow the unreacted ^32 P-ATP to pass through. The amount of phosphorylation is determined by the radioactivity as measured in a scintillation counter. Controls are included in every assay to measure: background activity in the absence of enzyme, activity in the absence of lipids, and the maximum enzyme activity with saturating levels of the activator lipids.
HEPES is N-[2-hydroxyethyl] piperazine-N'-[2-ethanesulfonic acid] and EGTA is Ethylene-bis(oxyethylenenitrilo) tetraacetic acid.
Protein kinase C assay results are shown in Table 3 in the column labeled PKC. Results are shown as IC50, which is the concentration of test compound needed to inhibit 50% of the protein kinase C activity as compared with levels of protein kinase C activity in controls.

neutrophils = assay: Neutrophil Superoxide Anion (O2 -) Release Assay; type: cell-based; settings: Homo sapiens, 0.5 h, PMA-stimulated, 37° C. for 30 min
Procedure: Neutrophils are isolated form whole blood collected from human volunteers. All reagent materials are obtained from Sigma Chemical Company with the exception of isotonic saline (Travenol Laboratories, Inc., Deerfield, Ill.) and lymphocyte separation medium (Organon Teknika, Durham, N.C.).
Whole blood is drawn and mixed with sodium heparin (final conc. 10 units/ml) to prevent clotting. An equal volume of dextran (3.0%) in isotonic saline is added, mixed, and allowed to settle for 30 min to bind red blood cells (RBC). Supernatant is removed, underlayered with lymphocyte separation medium and centrifuged for 40 min at 400 xg in a centrifuge (Beckman GPR, Norcross, Ga.). The pellet is alternately resuspended in 0.2% and 1.6% NaCl to lyse RBCs before washing with Hank's Balanced Salt Solution (HBSS). The washed pellet is resuspended in 10 ml HBSS and placed on ice before counting on a hemacytometer.
The neutrophil cell concentration is adjusted to 2×10^6 cells/ml with HBSS before adding 0.8 ml cells to 12×75 mm polypropylene test tubes (Fisher Scientific). Test agents are diluted to determine dose response and added at 10X final concentration at a volume of 0.1 ml/tube in duplicate. Then 10X concentrations of cytochrome C (15 mg/ml) with catalase (3000 units/ml) either alone or containing 25 ng/ml phorbol 12-myristate 13-acetate (PMA) are added at a volume of 0.1 ml/tube and incubated at 37° C. for 30 min before stopping the reaction by placing tubes on ice. Tubes are then centrifuged at 900 xg for 10 min, 0.5 ml supernatant is removed and added to 0.5 ml H2 O in a microcuvette. Optical density (OD) of cytochrome c is read in a spectrophotometer (Shimadzu) at 550 nm. The ΔOD of cytochrome c is obtained between PMA-stimulated and non-stimulated tubes, and the dose responses of the test agents are compared to the positive controls (which contain HBSS in place of test agents). PMA stimulates O2 production which reduces cytochrome c. Reducing cytochrome c increases its absorbance, and the change in OD of cytochrome c is proportional to the amount of O2 produced by PMA stimulation. Inhibition of the O2 - burst by test compounds of the invention is seen as a reduction in the change in optical density. Inhibition is expressed as IC50 μM and is the amount of test compound that will inhibit fifty percent of the PMA-stimulated respiratory burst, i.e. O2 production.

MCF-7 = assay: Human Tumor Cell Growth Inhibition (3H-thymidine uptake); type: cell-based; settings: MCF7; MCF-7 human breast tumor cell line; 18-24 hrs; read-out: MCF-7 (IC50, 3H-thymidine incorporation)
Description: MCF-7 a human breast tumor cell line and MCF-7/ADR an adriamycin resistant line of MCF-7 cells were obtained from the National Cancer Institute, Frederick, Md. CEM cells (ATCC accession number CCL 119) were obtained from the American Type Culture Collection, Rockville, Md.
Human tumor cells are trypsinized (0.05% trypsin, GIBCO), counted with a hemacytometer and seeded at a concentration of 10,000 cells/well in a 96 well microtiter plate. After allowing cells to attach to the surface overnight, the culture medium is aspirated and replaced with 100 μl of fresh medium. Test agents are diluted to determine dose response at 2X final concentration and added in quadruplicate at 100 μl/well to bring the total volume of each well to 200 μl. The microtiter plate is then incubated at 3 37° C. 5% CO2 overnight (18-24 hrs) before ^3 H-thymidine is added at a concentration of 0.5 μCi/well in 50 μl culture medium. The plate is incubated again for 4 hrs under the same conditions as above. Supernatant is then aspirated and 50 μl trypsin (0.05%, GIBCO) is added to each well. Cells are checked microscopically to determine detachment from surfaces, and plates are then harvested with a cell harvester (PHD, Cambridge Technology, Inc.) Filter papers corresponding to wells are placed in scintillation vials and counted to determine the amount of ^3 H-thymidine incorporated by the cells. […]

Compound | MCF-7: too insoluble to test [1] | IC50 [2] | IC50 [3] | IC50 (protein kinase C) | IC50 (neutrophils) | IC50 (MCF-7)
COc1c2occc2c(S(=O)(=O)NCCCNCCCCNCCCN)c2ccc(=O)oc12 [Compound 1, N-[3-[4-(3-amino-1-propyl)-amino-1-butyl]-amino-1-propyl]-s-methyl-furo[3,2-g]coumarin-5-sulfonamide] | * | 11.9 µM | > 218 µM | 30 µM | > 10 µM | –
COc1c2occc2c(S(=O)(=O)NCCCNCCCCNCCCNS(=O)(=O)c2c3ccoc3c(OC)c3oc(=O)ccc23)c2ccc(=O)oc12 [Compound 2] | * | 1.4 µM | > 218 µM | 24 µM | > 10 µM | –
COc1c2occc2c(S(=O)(=O)NCCCCNCCCNS(=O)(=O)c2c3ccoc3c(OC)c3oc(=O)ccc23)c2ccc(=O)oc12 [Compound 3] | – | 15.4 µM | > 218 µM | 21 µM | > 10 µM | 5.5 µM
COc1c2occc2c(S(=O)(=O)NCCCN(C)CCCNS(=O)(=O)c2c3ccoc3c(OC)c3oc(=O)ccc23)c2ccc(=O)oc12 [Compound 4] | – | 9.5 µM | > 218 µM | 17 µM | > 10 µM | 11 µM
COc1c2occc2c(S(=O)(=O)NCCCNCCCNS(=O)(=O)c2c3ccoc3c(OC)c3oc(=O)ccc23)c2ccc(=O)oc12 [Compound 5] | – | – | – | 33 µM | – | –
